Measurements reported in ChEMBL document CHEMBL4732258, “Pyxinol bearing amino acid residues: Easily achievable and promising modulators of P-glycoprotein-mediated multidrug resistance” (Eur J Med Chem, 2021).

Key:
Assay type in all cases: cell-based
[1] = Cytotoxicity against human KBV cells assessed as cell viability at 10 uM incubated for 72 hrs by MTT assay; details: read-out: Activity
[2] = system: KBV; assay: Reversal of Pgp-mediated paclitaxel resistance in human KBV cells assessed as cell viability at 10 uM in presence of paclitaxel incubated for 72 hrs by MTT assay
[3] = system: KBV; assay: Reversal of Pgp-mediated paclitaxel resistance in human KBV cells assessed as cell viability at 5 uM in presence of paclitaxel incubated for 72 hrs by MTT assay

Compound	viability at 72 h, 10 µM [1]	Activity [2]	Activity [3]	Activity ([2]; filed as modulator)	Activity ([3]; filed as modulator)
CC(C)(O)[C@@H]1CC[C@@](C)([C@H]2CC[C@]3(C)[C@@H]2[C@H](O)C[C@@H]2[C@@]4(C)CC[C@H](OC(=O)CN)C(C)(C)[C@@H]4CC[C@]23C)O1	86%	63%	98%		
CC(C)(C)OC(=O)NCC(=O)O[C@H]1CC[C@]2(C)[C@H]3C[C@@H](O)[C@@H]4[C@@H]([C@]5(C)CC[C@@H](C(C)(C)O)O5)CC[C@@]4(C)[C@]3(C)CC[C@H]2C1(C)C	107%			18%	30%
CC(C)(O)[C@@H]1CC[C@@](C)([C@H]2CC[C@]3(C)[C@@H]2[C@H](O)C[C@@H]2[C@@]4(C)CC[C@H](OC(=O)[C@@H](N)CCCCN)C(C)(C)[C@@H]4CC[C@]23C)O1	81%	82%	98%		
CC(C)(C)OC(=O)N[C@@H](Cc1cn(C(=O)OC(C)(C)C)c2ccccc12)C(=O)O[C@H]1CC[C@]2(C)[C@H]3C[C@@H](O)[C@@H]4[C@@H]([C@]5(C)CC[C@H](C(C)(C)O)O5)CC[C@@]4(C)[C@]3(C)CC[C@H]2C1(C)C	132%	161%	165%		
CC(C)[C@H](NC(=O)OC(C)(C)C)C(=O)O[C@H]1CC[C@]2(C)[C@H]3C[C@@H](O)[C@@H]4[C@@H]([C@]5(C)CC[C@@H](C(C)(C)O)O5)CC[C@@]4(C)[C@]3(C)CC[C@H]2C1(C)C	128%	110%	106%		
CC(C)(O)[C@H]1CC[C@@](C)([C@H]2CC[C@]3(C)[C@@H]2[C@H](O)C[C@@H]2[C@@]4(C)CC[C@H](OC(=O)[C@@H](N)Cc5ccc(O)cc5)C(C)(C)[C@@H]4CC[C@]23C)O1	87%			27%	28%
CC(C)(C)OC(=O)NCCCC[C@H](NC(=O)OC(C)(C)C)C(=O)O[C@H]1CC[C@]2(C)[C@H]3C[C@@H](O)[C@@H]4[C@@H]([C@]5(C)CC[C@@H](C(C)(C)O)O5)CC[C@@]4(C)[C@]3(C)CC[C@H]2C1(C)C	123%			21%	28%
CC(C)(C)OC(=O)CC[C@H](NC(=O)OC(C)(C)C)C(=O)O[C@H]1CC[C@]2(C)[C@H]3C[C@@H](O)[C@@H]4[C@@H]([C@]5(C)CC[C@@H](C(C)(C)O)O5)CC[C@@]4(C)[C@]3(C)CC[C@H]2C1(C)C	46%			17%	19%
C[C@@H](OCc1ccccc1)[C@H](NC(=O)OC(C)(C)C)C(=O)O[C@H]1CC[C@]2(C)[C@H]3C[C@@H](O)[C@@H]4[C@@H]([C@]5(C)CC[C@@H](C(C)(C)O)O5)CC[C@@]4(C)[C@]3(C)CC[C@H]2C1(C)C	76%			19%	24%
CC(C)(O)[C@H]1CC[C@@](C)([C@H]2CC[C@]3(C)[C@@H]2[C@H](O)C[C@@H]2[C@@]4(C)CC[C@H](OC(=O)CN)C(C)(C)[C@@H]4CC[C@]23C)O1	106%			28%	43%
CC(C)(O)[C@H]1CC[C@@](C)([C@H]2CC[C@]3(C)[C@@H]2[C@H](O)C[C@@H]2[C@@]4(C)CC[C@H](OC(=O)[C@@H](N)Cc5c[nH]c6ccccc56)C(C)(C)[C@@H]4CC[C@]23C)O1	81%			30%	32%
CC(C)(C)OC(=O)N[C@@H](Cc1ccccc1)C(=O)O[C@H]1CC[C@]2(C)[C@H]3C[C@@H](O)[C@@H]4[C@@H]([C@]5(C)CC[C@H](C(C)(C)O)O5)CC[C@@]4(C)[C@]3(C)CC[C@H]2C1(C)C	125%			25%	48%
CC(C)(C)OC(=O)N[C@@H](Cc1cn(C(=O)OC(C)(C)C)c2ccccc12)C(=O)O[C@H]1CC[C@]2(C)[C@H]3C[C@@H](O)[C@@H]4[C@@H]([C@]5(C)CC[C@@H](C(C)(C)O)O5)CC[C@@]4(C)[C@]3(C)CC[C@H]2C1(C)C	137%	147%	138%		
CC(C)(C)OC(=O)NCCCC[C@H](NC(=O)OC(C)(C)C)C(=O)O[C@H]1CC[C@]2(C)[C@H]3C[C@@H](O)[C@@H]4[C@@H]([C@]5(C)CC[C@H](C(C)(C)O)O5)CC[C@@]4(C)[C@]3(C)CC[C@H]2C1(C)C	147%			31%	34%
CC(C)[C@H](NC(=O)OC(C)(C)C)C(=O)O[C@H]1CC[C@]2(C)[C@H]3C[C@@H](O)[C@@H]4[C@@H]([C@]5(C)CC[C@H](C(C)(C)O)O5)CC[C@@]4(C)[C@]3(C)CC[C@H]2C1(C)C	120%			20%	31%
CC(C)(O)[C@H]1CC[C@@](C)([C@H]2CC[C@]3(C)[C@@H]2[C@H](O)C[C@@H]2[C@@]4(C)CC[C@H](O)C(C)(C)[C@@H]4CC[C@]23C)O1	91%	63%	83%		

Compound	viability at 72 h, 10 µM [1]	Activity [2]	Activity [3]	Activity ([2]; filed as modulator)	Activity ([3]; filed as modulator)
CC(C)(O)[C@H]1CC[C@@](C)([C@H]2CC[C@]3(C)[C@@H]2[C@H](O)C[C@@H]2[C@@]4(C)CC[C@H](OC(=O)[C@@H](N)Cc5ccccc5)C(C)(C)[C@@H]4CC[C@]23C)O1	74%			21%	26%
CC(C)[C@H](N)C(=O)O[C@H]1CC[C@]2(C)[C@H]3C[C@@H](O)[C@@H]4[C@@H]([C@]5(C)CC[C@H](C(C)(C)O)O5)CC[C@@]4(C)[C@]3(C)CC[C@H]2C1(C)C	84%			23%	33%
C[C@@H](OCc1ccccc1)[C@H](N)C(=O)O[C@H]1CC[C@]2(C)[C@H]3C[C@@H](O)[C@@H]4[C@@H]([C@]5(C)CC[C@@H](C(C)(C)O)O5)CC[C@@]4(C)[C@]3(C)CC[C@H]2C1(C)C	102%			30%	46%
C[C@@H](OCc1ccccc1)[C@H](NC(=O)OC(C)(C)C)C(=O)O[C@H]1CC[C@]2(C)[C@H]3C[C@@H](O)[C@@H]4[C@@H]([C@]5(C)CC[C@H](C(C)(C)O)O5)CC[C@@]4(C)[C@]3(C)CC[C@H]2C1(C)C	138%	144%	138%		
CC(C)(O)[C@@H]1CC[C@@](C)([C@H]2CC[C@]3(C)[C@@H]2[C@H](O)C[C@@H]2[C@@]4(C)CC[C@H](OC(=O)[C@@H](N)Cc5ccccc5)C(C)(C)[C@@H]4CC[C@]23C)O1	100%			29%	35%
CC(C)(C)OC(=O)N[C@@H](Cc1ccc(OC(C)(C)C)cc1)C(=O)O[C@H]1CC[C@]2(C)[C@H]3C[C@@H](O)[C@@H]4[C@@H]([C@]5(C)CC[C@H](C(C)(C)O)O5)CC[C@@]4(C)[C@]3(C)CC[C@H]2C1(C)C	98%	71%	107%		
CC(C)(O)[C@H]1CC[C@@](C)([C@H]2CC[C@]3(C)[C@@H]2[C@H](O)C[C@@H]2[C@@]4(C)CC[C@H](OC(=O)[C@@H](N)CCC(=O)O)C(C)(C)[C@@H]4CC[C@]23C)O1	106%	72%	105%		
CC(C)(O)[C@H]1CC[C@@](C)([C@H]2CC[C@]3(C)[C@@H]2[C@H](O)C[C@@H]2[C@@]4(C)CC[C@H](OC(=O)[C@@H](N)CC(=O)O)C(C)(C)[C@@H]4CC[C@]23C)O1	95%	61%	106%		
CC(C)(O)[C@@H]1CC[C@@](C)([C@H]2CC[C@]3(C)[C@@H]2[C@H](O)C[C@@H]2[C@@]4(C)CC[C@H](OC(=O)[C@@H](N)Cc5ccc(O)cc5)C(C)(C)[C@@H]4CC[C@]23C)O1	97%		87%	35%	
CC(C)(C)OC(=O)CC[C@H](NC(=O)OC(C)(C)C)C(=O)O[C@H]1CC[C@]2(C)[C@H]3C[C@@H](O)[C@@H]4[C@@H]([C@]5(C)CC[C@H](C(C)(C)O)O5)CC[C@@]4(C)[C@]3(C)CC[C@H]2C1(C)C	82%			19%	31%
CC(C)(C)OC(=O)NCC(=O)O[C@H]1CC[C@]2(C)[C@H]3C[C@@H](O)[C@@H]4[C@@H]([C@]5(C)CC[C@H](C(C)(C)O)O5)CC[C@@]4(C)[C@]3(C)CC[C@H]2C1(C)C	106%			22%	28%
CC(C)(O)[C@@H]1CC[C@@](C)([C@H]2CC[C@]3(C)[C@@H]2[C@H](O)C[C@@H]2[C@@]4(C)CC[C@H](OC(=O)[C@@H](N)CC(=O)O)C(C)(C)[C@@H]4CC[C@]23C)O1	106%	92%	110%		
CC(C)(C)OC(=O)C[C@H](NC(=O)OC(C)(C)C)C(=O)O[C@H]1CC[C@]2(C)[C@H]3C[C@@H](O)[C@@H]4[C@@H]([C@]5(C)CC[C@@H](C(C)(C)O)O5)CC[C@@]4(C)[C@]3(C)CC[C@H]2C1(C)C	88%			17%	35%
CC(C)(O)[C@H]1CC[C@@](C)([C@H]2CC[C@]3(C)[C@@H]2[C@H](O)C[C@@H]2[C@@]4(C)CC[C@H](OC(=O)[C@@H](N)CCCCN)C(C)(C)[C@@H]4CC[C@]23C)O1	45%		85%	29%	
CC(C)(C)OC(=O)N[C@@H](Cc1ccccc1)C(=O)O[C@H]1CC[C@]2(C)[C@H]3C[C@@H](O)[C@@H]4[C@@H]([C@]5(C)CC[C@@H](C(C)(C)O)O5)CC[C@@]4(C)[C@]3(C)CC[C@H]2C1(C)C	17%			16%	17%
